Assay results published in EP4509511A1, “SUBSTITUTED SPIRO-ISOXAZOLINYL LACTAMS, SALTS THEREOF AND THEIR USE AS HERBICIDALLY ACTIVE SUBSTANCES” (Bayer Aktiengesellschaft, priority 2023, dated 2025).

How the values were obtained:
VIOTR [1] = experiment: Herbicidal pre-emergence action - Part II; format: in vivo, Viola tricolor
Text: (§1) Seeds of mono- and dicotyledonous weed plants and crop plants were sown, in plastic or organic planting pots, in sandy loam and covered with soil. The compounds according to the invention, formulated in the form of wettable powders (WP) or as emulsifiable concentrates (EC), were applied to the surface of the covering soil as aqueous suspension or emulsion, with the addition of 0.5% of an additive, at an application rate of 600 1 of water/ha (converted). Following treatment, the pots were placed in a greenhouse and kept under optimum growth conditions for the test plants. The visual grading of the damage to the test plants was carried out after ca. 3 weeks in comparison to untreated controls (herbicidal effect in percent (%): 100% effect = plants have died off, 0% effect = as control plants). Tables C1 to C12 below show the effects of selected compounds of the general formula (I) according to table 1 on various harmful plants and an application rate corresponding to 320 g/ha or below obtained by the experimental procedure mentioned above. Table C1: pre-emergence activity at 320g/ha against ABUTH in %

VERPE [2] = experiment: Herbicidal post-emergence action - Part I; format: in vivo, Veronica persica; conditions: one-leaf stage, rated visually after about 3 weeks vs untreated controls
Procedure, shortened: (§2)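 Activity was scored visually as % damage (100% = dead, 0% = like untreated) about 3 weeks after treatment. Plants at the one-leaf stage, 2-3 weeks old, were sprayed with WP/EC formulations plus 0.5% additive (600 L/ha water, up to 1280 g/ha). Plants were grown in sandy loam in a greenhouse.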

ABUTH [3] = experiment: Herbicidal post-emergence action - Part II; format: in vivo, Abutilon theophrasti; conditions: 320 g/ha; Table E1c
Procedure, shortened: (§3)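 Post-emergence greenhouse test: weeds and crops in sandy loam sprayed at single-leaf stage, 2–3 weeks after sowing, with WP or EC formulations in water plus 0.5% additive at 600 l water/ha. Rates 320 g/ha or below. Visual rating after ca. 3 weeks versus untreated controls, % effect (100% = plants dead).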

VERPE [4] = experiment: Herbicidal pre-emergence action - Part II; format: in vivo, Veronica persica
Text: as §1

LOLRI = experiment: Herbicidal pre-emergence action - Part I; format: in vivo, Lolium rigidum; conditions: visual grading after ca. 3 weeks vs untreated controls
Text: Seeds of mono- and dicotyledonous weed plants were sown in plastic pots (double sowings with one species of mono- and one species of dicotyledonous weed plants per pot), in sandy loam, and covered with soil. The compounds according to the invention, formulated in the form of wettable powders (WP) or as emulsifiable concentrates (EC), were applied to the surface of the covering soil as aqueous suspension or emulsion, with the addition of 0.5% of an additive, at an application rate of 600 1 of water per hectare (converted). Following treatment, the pots were placed in a greenhouse and kept under optimum growth conditions for the test plants. The visual grading of the damage to the test plants was carried out after ca. 3 weeks in comparison to untreated controls (herbicidaleffectinpercent(%):100%effect=plantshavediedoff,0%effect=ascontrolplants). [formula]
Tables A1 to A12, below, show the effects of selected compounds of the general formula (I) according to table 1 on various harmful plants and an application rate corresponding to 1280 g/ha or below obtained by the experimental procedure mentioned above. Table A1: pre-emergence activity at 1280g/ha against ABUTH in %

DIGSA [5] = experiment: Herbicidal pre-emergence action - Part I; format: in vivo, Digitaria sanguinalis; conditions: visual grading after ca. 3 weeks vs untreated controls
Procedure, shortened: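 In this greenhouse pre-emergence test, formulated compounds with 0.5% additive were applied at 1280 g/ha or below onto the soil covering sown weed seeds in sandy loam. After roughly three weeks, plant damage was scored by eye in percent versus untreated controls.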

MATIN = experiment: Herbicidal pre-emergence action - Part II; format: in vivo, Matricaria inodora; conditions: 320 g/ha; Table C8
Text: as §1

VIOTR [6] = experiment: Herbicidal post-emergence action - Part II; format: in vivo, Viola tricolor; conditions: 320 g/ha; Table E9c
Procedure, shortened: as §3

ECHCG [7] = experiment: Herbicidal post-emergence action - Part II; format: in vivo, Echinochloa crus-galli; conditions: 320 g/ha; Table E3b
Text: Seeds of mono- and dicotyledonous weed plants and crop plants were sown, in plastic or organic planting pots, in sandy loam, covered with soil and grown in a greenhouse under controlled growth conditions. 2 to 3 weeks after sowing, the test plants were sprayed in the single-leaf stage. The compounds according to the invention, formulated in form of wettable powders (WP) or as emulsifiable concentrates (EC), were sprayed onto the green plant parts as aqueous suspension or emulsion, with the addition of 0.5% of an additive, at an application rate of 600 1 of water/ha (converted). The test plants were placed in the greenhouse for ca. 3 weeks under optimum growth conditions, and then the effect of the preparations was assessed visually in comparison with untreated controls (herbicidal effect in percent (%): 100% effect = plants have died off, 0% effect = as control plants). Tables E1 to E10 below show the effects of selected compounds of the general formula (I) according to table 1 on various harmful plants and an application rate corresponding to 320 g/ha or below obtained by the experimental procedure mentioned above. Table E1a: post-emergence activity at 5g/ha against ABUTH in %

ALOMY = experiment: Herbicidal post-emergence action - Part I; format: in vivo, Alopecurus myosuroides; conditions: one-leaf stage, rated visually after about 3 weeks vs untreated controls
Description: (§4) Seeds of mono- and dicotyledonous weed plants were placed in plastic pots in sandy loam soil (doubly sown with in each case one species of mono- or dicotyledonous weed plants per pot), covered with soil and cultivated in a greenhouse under controlled growth conditions. 2 to 3 weeks after sowing, the test plants were treated at the one-leaf stage. The compounds of the invention, formulated in the form of wettable powders (WP) or as emulsion concentrates (EC), were applied onto the green parts of the plants as aqueous suspension or emulsion with addition of 0.5% additive at a water application rate of 600 liters per hectare (converted). After the test plants had been kept in the greenhouse under optimum growth conditions for about 3 weeks, the activity of the preparations was rated visually in comparison to untreated controls. For example, 100% activity = the plants have died, 0% activity = like control plants. Tables B1 to B12, below, show the effects of selected compounds of the general formula (I) according to table 1 on various harmful plants and an application rate corresponding to 1280 g/ha or below obtained by the experimental procedure mentioned above. Table B1a: post-emergence activity at 1280g/ha against ABUTH in %

ECHCG [8] = experiment: Herbicidal post-emergence action - Part I; format: in vivo, Echinochloa crus-galli; conditions: one-leaf stage, rated visually after about 3 weeks vs untreated controls
Procedure, shortened: as §2

VERPE [9] = experiment: Herbicidal post-emergence action - Part II; format: in vivo, Veronica persica
Procedure, shortened: as §3

POLCO = experiment: Herbicidal pre-emergence action - Part II; format: in vivo, Polygonum convolvulus; conditions: 320 g/ha; Table C9
Text: as §1

DIGSA [10] = experiment: Herbicidal post-emergence action - Part I; format: in vivo, Digitaria sanguinalis; conditions: one-leaf stage, rated visually after about 3 weeks vs untreated controls
Description: as §4

AVEFA = experiment: Herbicidal pre-emergence action - Part II; format: in vivo, Avena fatua; conditions: 320 g/ha; Table C4
Text: as §1

ABUTH [11] = experiment: Herbicidal post-emergence action - Part I; format: in vivo, Abutilon theophrasti; conditions: 1280 g/ha, one-leaf stage, rated visually after about 3 weeks vs untreated controls
Procedure, shortened: as §2

SETVI = experiment: Herbicidal post-emergence action - Part II; format: in vivo, Setaria viridis; conditions: 320 g/ha; Table E7c
Procedure, shortened: as §3

In the case of `Cc1ccsc1C1=NOC2(CCCN(Cc3c(F)cccc3F)C2=O)C1` (racemic) [Compound I-2], the “pre-emergence activity against VIOTR” value (VIOTR [1]; 80 g/ha, Table C12b) was 90%, the “pre-emergence activity against VIOTR” value (VIOTR [1]; 320 g/ha, Table C12a) was 90% and the “post-emergence activity at 320g/ha against VERPE in %” value (VERPE [2]; 320 g/ha) was 90%. For the same compound, the “post-emergence activity at 1280g/ha against VERPE in %” value (VERPE [2]; 1280 g/ha) was 90%, the “post-emergence activity against ABUTH” value (ABUTH [3]) was 80% and the “pre-emergence activity against VERPE” value (VERPE [4]; 80 g/ha, Table C11b) was 90%. The “pre-emergence activity against VERPE” value (VERPE [4]; 320 g/ha, Table C11a) was 90%, the “pre-emergence activity at 320g/ha against LOLRI in %” value (LOLRI; 320 g/ha) was 100% and the “pre-emergence activity at 1280g/ha against LOLRI in %” value (LOLRI; 1280 g/ha) was 100%. For the same compound, the “pre-emergence activity at 320g/ha against DIGSA in %” value (DIGSA [5]; 320 g/ha) was 100%, the “pre-emergence activity at 1280g/ha against DIGSA in %” value (DIGSA [5]; 1280 g/ha) was 100% and the “pre-emergence activity against MATIN” value (MATIN) was 90%. The “post-emergence activity against VIOTR” value (VIOTR [6]) was 80%, the “post-emergence activity against ECHCG” value (ECHCG [7]) was 90% and the “post-emergence activity at 1280g/ha against ALOMY in %” value (ALOMY) was 90%. The “post-emergence activity at 320g/ha against ECHCG in %” value (ECHCG [8]; 320 g/ha) was 90%, the “post-emergence activity at 1280g/ha against ECHCG in %” value (ECHCG [8]; 1280 g/ha) was 90% and the “post-emergence activity against VERPE” value (VERPE [9]; 80 g/ha, Table E8c) was 90%. For the same compound, the “post-emergence activity against VERPE” value (VERPE [9]; 320 g/ha, Table E8d) was 90%, the “pre-emergence activity against POLCO” value (POLCO) was 80% and the “post-emergence activity at 320g/ha against DIGSA in %” value (DIGSA [10]; 320 g/ha) was 90%. For the same compound, the “post-emergence activity at 1280g/ha against DIGSA in %” value (DIGSA [10]; 1280 g/ha) was 90%, the “pre-emergence activity against AVEFA” value (AVEFA) was 80% and the “post-emergence activity at 1280g/ha against ABUTH in %” value (ABUTH [11]) was 90%. The “post-emergence activity against SETVI” value (SETVI) was 90%.
